# Patent US20140142035A1, “METHODS AND COMPOSITIONS FOR MODULATING INSULIN REGULATION” (The Washington University, priority 2010, published 2014)
# Entries after “also recorded” stand apart in the source; their conditions may differ. Where no end group is shown, it is not given here.
# Tests used:
# WT mice = test: Plasma insulin 5 minutes after i.p. glucose with peptides, wild type mice; format: in vivo, mouse
# Experimental: (§1) WT and DT mice were fasted for 16-h (Fast). As indicated, some mice were then administered an intraperitoneal injection of glucose (1 g/kg) with vehicle alone (BSA), GIP alone, Xenin-25 alone (Xen) or GIP plus Xenin-25 (G+X). […] Five minutes after injection of glucose, blood was collected and plasma prepared for insulin assays.
# (§2) WT and DT mice were fasted for 16-h (Fast). As indicated, some mice were then administered an intraperitoneal injection of glucose (1 g/kg) with vehicle alone (BSA), GIP alone, Xenin-25 alone (Xen) or GIP plus Xenin-25 (G+X). Five minutes later, blood was collected. Plasma was then prepared and assayed for insulin.
# (§3) Activation of parasympathetic neurons that innervate the pancreas can increase glucose-mediated insulin release in vivo. […] Wild type and GIP/DT mice were fasted overnight and then administered glucose in combination with GIP plus Xenin-25 by intraperitoneal injection. […] Blood was collected and plasma prepared 5 minutes after the glucose injection. […] Subsets of parasympathetic neurons that innervate the islets release vasoactive intestinal polypeptide (VIP) and pituitary adenylate cyclase activating peptide (PACAP) when activated. N-terminally truncated forms of PACAP [PACAP(6-38) or PACAP(6-27)] are competitive inhibitors of both VIP receptors (VPAC1 and VPAC2) as well as the PACAP-specific receptor Pac.
# NONcNZO10/Ltj mice [1] = test: Blood glucose after i.p. glucose plus peptides in mouse model of human T2DM; format: in vivo; settings: glucose 1 g/kg i.p.
# Experimental: Panel A depicts blood glucose levels in 5-week old pre-diabetic mice. Panel B depicts blood glucose levels in 16-week old diabetic mice. Panel C depicts the area under the curve for data in panels A and B as well as for a third experiment using 18-week old mice. * indicates P value<0.05 versus mice of the same age receiving BSA alone.
# At the age indicated in FIG. 21, mice were fasted for 16-h. Blood glucose levels were measured before and at the indicated time after an intraperitoneal injection of glucose (1 g/kg) plus vehicle alone (BSA), GIP alone, Xenin-25 alone (Xen) or GIP plus Xenin-25 (GIP+Xen).
# GIP/DT mice = test: Plasma insulin 5 minutes after i.p. glucose with peptides, GIP/DT mice; format: in vivo, mouse
# Experimental: as §1, §2, §3
# NONcNZO10/Ltj mice [2] = test: Plasma insulin after i.p. glucose plus peptides in mouse model of human T2DM; format: in vivo; settings: 8-week old pre-diabetic mice (FIG. 22A); 15 minutes after i.p. glucose 1 g/kg
# Experimental: Panel A depicts plasma insulin levels in 8-week old pre-diabetic mice.
# NONcNZO10/Ltj mice were fasted for 16-h. Blood was collected before (0) or 15 minutes after an intraperitoneal injection of glucose (1 g/kg) in the presence of vehicle alone (BSA), GIP alone, Xenin-25 alone (Xen) or GIP plus Xenin-25 (GIP+Xen). […] (FIG. 22A).
# primary mouse islets = test: Insulin release assay (static incubation) with primary mouse islets; format: cell-based; settings: 100 nM peptide, 60 min, RIA
# Experimental: (§4) Primary mouse islets (panel A) or MIN6 cells (panel B) were incubated for 1-h in insulin assay buffer (KRB) containing 2.5 mM glucose. Islets or cells were then switched to KRB containing the indicated concentration of glucose with or without 100 nM GIP, GLP-1, Xenin-8, or Xenin-25. Sixty-minutes later, assay buffer was collected and the amount of insulin released determined by RIA.
# as §4, with “islets” for “islets (panel A) or MIN6 cells (panel B)”, “Islets” for “Islets or cells”, “Xenin-8.” for “GIP, GLP-1, Xenin-8, or Xenin-25.”
# (§5) Insulin release assays (static incubations) were conducted at the indicated concentration of glucose with islets isolated from WT C57BL/6J mice (Panel A; 5 islets per sample; 6 samples per condition) or Min6 cells (Panels B, C; 4 wells per condition). 100 nM GIP, GLP-1, or Xenin-25 (Xen) was added to some samples in Panels A, B. Peptides were added at the indicated concentrations in Panels C.
# Experiments were conducted to determine whether Xenin-25 acts directly on pancreatic islet beta cells (FIG. 23). Islets were isolated from wild type C57BL/6J mice and then subjected to insulin release assays (FIG. 23A) in the presence of different concentrations of glucose. […]
# MIN6 cells = test: Insulin release assay with MIN6 cells; format: cell-based; settings: for glucose-stimulated insulin release: MIN6 cells, 100 nM peptide, 60 min
# Experimental: as §4, §5
# Next, studies were performed with MIN6 cells, a well-characterized, glucose-responsive, insulin-producing cell line. First, insulin release assays were conducted in the presence of peptides. […] Second, Min6 cells were treated with GLP-1, GIP, or Xenin-25 and Western blots conducted to determine whether the Xenin-25 increased MAPK signaling. […] Finally, insulin release assays were conducted in the presence of GIP plus Xenin-25.
# [3] = test system: MAPK signaling in Min6 Cells; test: Western blot for phosphorylated (active) MAPK in Min6 cells; format: cell-based; settings: 10 minutes, 7.5 mM glucose, 100 nM peptide
# perfused rat pancreas = settings: supraphysiologic concentrations; cited from earlier work
compound,measurement,setting,value
glucose-dependent insulinotropic polypeptide [GIP],increase in plasma insulin levels,"WT mice; WT mice, 5 minutes after i.p. glucose 1 g/kg",greater than 3 fold
same,blood glucose levels after i.p. glucose,NONcNZO10/Ltj mice [1]; 5-week old pre-diabetic mice,does not significantly improve blood glucose levels
same,blood glucose levels after i.p. glucose,NONcNZO10/Ltj mice [1]; 16-week old diabetic mice,modest improvement in blood glucose levels
same,plasma insulin levels,"GIP/DT mice; GIP/DT mice, 5 minutes after i.p. glucose 1 g/kg",much smaller increase in plasma insulin levels than was observed in WT mice
same,plasma insulin levels,NONcNZO10/Ltj mice [2],little effect on plasma insulin levels
same,glucose-stimulated insulin release,primary mouse islets,insulin release is potentiated; also recorded: potentiate glucose-stimulated insulin release
same,glucose-stimulated insulin release,MIN6 cells,glucose-stimulated insulin release was amplified; also recorded: potentiate glucose-stimulated insulin release
same,"insulin release, GIP with/without Xenin-25","MIN6 cells; Min6 cells, peptides at indicated concentrations (FIG. 23C)",dose-dependent increase in insulin release
same,phosphorylation of MAPK,[3],profound increases in phosphorylation of MAPK
CN1[C@@H]2CC[C@H]1C[C@@H](OC(=O)C(CO)c1ccccc1)C2 (stereo partly drawn) [atropine],effect on insulin release with GIP plus Xenin-25,"WT mice; wild type mice, atropine i.p. 15 minutes before glucose",no statistically significant effect on insulin release
"PACAP(6-38): N-terminally truncated PACAP; competitive inhibitor of VIP receptors (VPAC1 and VPAC2) and PACAP-specific receptor (FTDSYSRYRKQMAVKKYLAAVLGKRYKQRVKNK; ends and bridges not checked; UniProt P18509 137-169, looked up, fragment)",inhibition of Xenin-25 potentiation of GIP-mediated increase in plasma insulin,"GIP/DT mice; given along with peptides (FIG. 25C), mouse line not stated",did not inhibit Xenin-25 potentiation of the GIP-mediated increase in plasma insulin levels
"Xenin: xenin protein, form (xenin-25 or fragment) not specified at the place (MLTKFETKSARVKGLSFHPKRPWIL; Xenin; UniProt P53621 1-25, looked up)",glucose-stimulated insulin release,perfused rat pancreas,increased glucose-stimulated insulin release
"glucagon like peptide 1 (HAEGTFTSDVSSYLEGQAAKEFIAWLVKGR; ends and bridges not checked; UniProt P01275 98-127, looked up) [GLP-1, incretin hormone; synthetic GLP-1(7-36) used in vivo]",glucose-stimulated insulin release,primary mouse islets,insulin release is potentiated; also recorded: potentiate glucose-stimulated insulin release
same,glucose-stimulated insulin release,MIN6 cells,glucose-stimulated insulin release was amplified; also recorded: potentiate glucose-stimulated insulin release
same,phosphorylation of MAPK,[3],profound increases in phosphorylation of MAPK
